Literature values, collected in US7429679B2, “Sulphonic acid salt of sibutramine” (CJ Corporation, priority 2005, dated 2008).

Test system: mouse
Conditions: intravenous; cited from earlier work

## O=S(=O)(O)CCS(=O)(=O)O [ethane disulfonic acid]
  LDL0: 68 mg/kg

## CCS(=O)(=O)O [ethanesulfonic acid]
  LDL0: 48 mg/kg
